SMILES strings stand for the structures. Calls of active or inactive are those of the source. The calls are words filed in the database; no cut-off is given here.

This experiment deals with Glutamate NMDA receptor (Rattus norvegicus) (UniProt P35439+Q00959+Q00960+Q00961+Q62645+Q8VHN2+Q9R1M7). The experiment can be described thus: Antagonist activity at glycine site of NMDA receptor in rat brain cortex membrane assessed as inhibition of [3H]Mk-801 binding by liquid scintillation counting in presence of antagonist 5,7-dichlorokynurenic acid.

For the molecule `C[C@@H]1CN(O)C(=O)[C@@H]1N` (relative stereo), the outcome was Active.
